≈ marks a conversion by molar mass, not a printed value.
Legend:
[1] = biological target: T1, Amine oxidase [flavin-containing] A (Homo sapiens, UniProt P21397); assay: Inhibition of recombinant human MAO-A
T1 sequence (P21397 whole entry): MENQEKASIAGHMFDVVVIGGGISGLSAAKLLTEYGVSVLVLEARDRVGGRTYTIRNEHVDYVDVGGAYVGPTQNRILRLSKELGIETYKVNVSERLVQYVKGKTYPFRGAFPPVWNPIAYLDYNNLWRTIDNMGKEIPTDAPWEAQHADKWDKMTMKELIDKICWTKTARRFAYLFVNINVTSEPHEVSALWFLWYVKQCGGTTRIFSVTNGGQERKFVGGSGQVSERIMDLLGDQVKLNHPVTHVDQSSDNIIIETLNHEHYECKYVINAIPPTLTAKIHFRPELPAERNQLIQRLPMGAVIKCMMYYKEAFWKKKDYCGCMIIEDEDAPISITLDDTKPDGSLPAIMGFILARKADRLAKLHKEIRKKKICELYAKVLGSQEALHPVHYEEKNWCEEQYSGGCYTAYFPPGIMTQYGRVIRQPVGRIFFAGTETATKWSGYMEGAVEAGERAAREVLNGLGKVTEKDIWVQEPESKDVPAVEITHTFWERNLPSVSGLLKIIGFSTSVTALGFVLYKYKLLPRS

Rattus norvegicus = species on record: Rattus norvegicus; assay: Inhibition of rat brain stem MAO at 2 mM using serotonin as substrate incubated for 30 mins by fluorometric analysis relative to control; type: tissue-based; conditions: Brainstem
[2] = Metabolic stability in mouse liver microsome assessed as compound remaining at 500 uM measured at 10 mins by LC-MS/MS method; type: ADME; conditions: liver microsomes, read-out: Stability
[3] = Solubility of compound in PBS at pH 7.0 at 100 uM measured for 20 mins by LC-MS/MS analysis; type: physicochemical
[4] = biological target: T2, MAO-B (amine oxidase [flavin-containing] B) (Homo sapiens, UniProt P27338); assay: Inhibition of human MAO-B assessed as residual activity at 10 uM relative to control; conditions: read-out: Activity
T2 sequence (P27338 whole entry): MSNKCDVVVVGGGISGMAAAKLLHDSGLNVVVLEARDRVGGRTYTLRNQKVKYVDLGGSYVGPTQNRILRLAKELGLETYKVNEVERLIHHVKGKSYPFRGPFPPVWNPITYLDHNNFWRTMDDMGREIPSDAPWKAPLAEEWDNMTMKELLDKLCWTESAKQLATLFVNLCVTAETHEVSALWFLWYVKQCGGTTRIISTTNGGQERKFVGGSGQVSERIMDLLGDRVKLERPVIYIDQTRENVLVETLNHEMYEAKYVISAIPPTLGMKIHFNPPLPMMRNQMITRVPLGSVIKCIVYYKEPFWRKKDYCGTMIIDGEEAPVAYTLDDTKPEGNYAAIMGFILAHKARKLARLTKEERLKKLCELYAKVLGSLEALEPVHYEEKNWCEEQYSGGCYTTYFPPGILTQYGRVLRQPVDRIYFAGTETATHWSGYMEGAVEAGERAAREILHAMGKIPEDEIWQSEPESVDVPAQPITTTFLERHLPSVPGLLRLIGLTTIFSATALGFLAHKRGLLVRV

[5] = Apparent permeability of the compound in human Caco-2 cells at 25 uM measured after 2 hrs by LC-MS/MS analysis; type: ADME, cell-based
[6] = Metabolic stability in human liver microsome assessed as compound remaining at 500 uM measured at 60 mins by LC-MS/MS method; type: ADME; conditions: liver microsomes, read-out: Stability
[7] = Lipophilicity, log D of the compound at pH 7.4; type: physicochemical; conditions: buffer
[8] = Metabolic stability in human liver microsome assessed as compound remaining at 500 uM measured at 10 mins by LC-MS/MS method; type: ADME; conditions: liver microsomes, read-out: Stability
[9] = Metabolic stability in mouse liver microsome assessed as compound remaining at 500 uM measured at 60 mins by LC-MS/MS method; type: ADME; conditions: liver microsomes, read-out: Stability
[10] = biological target: T3, Amine oxidase [flavin-containing] B (Homo sapiens, UniProt P27338); assay: Inhibition of human MAO-B measure after 1 hr by microplate reader analysis
T3 sequence (P27338 whole entry): T2 sequence (P27338 whole entry)

[11] = biological target: T1, Amine oxidase [flavin-containing] A; assay: Inhibition of human MAO-A measure after 1 hr by microplate reader analysis
SH-SY5Y = assay: Cytotoxicity against human SH-SY5Y cells assessed as inhibition of cell viability at 10 uM after 24 hrs by MTS assay relative to control; type: functional
[12] = biological target: T4, Amine oxidase [flavin-containing] A (Mus musculus, UniProt Q64133); assay: Inhibition of mouse MAO-A
T4 sequence (Q64133 whole entry): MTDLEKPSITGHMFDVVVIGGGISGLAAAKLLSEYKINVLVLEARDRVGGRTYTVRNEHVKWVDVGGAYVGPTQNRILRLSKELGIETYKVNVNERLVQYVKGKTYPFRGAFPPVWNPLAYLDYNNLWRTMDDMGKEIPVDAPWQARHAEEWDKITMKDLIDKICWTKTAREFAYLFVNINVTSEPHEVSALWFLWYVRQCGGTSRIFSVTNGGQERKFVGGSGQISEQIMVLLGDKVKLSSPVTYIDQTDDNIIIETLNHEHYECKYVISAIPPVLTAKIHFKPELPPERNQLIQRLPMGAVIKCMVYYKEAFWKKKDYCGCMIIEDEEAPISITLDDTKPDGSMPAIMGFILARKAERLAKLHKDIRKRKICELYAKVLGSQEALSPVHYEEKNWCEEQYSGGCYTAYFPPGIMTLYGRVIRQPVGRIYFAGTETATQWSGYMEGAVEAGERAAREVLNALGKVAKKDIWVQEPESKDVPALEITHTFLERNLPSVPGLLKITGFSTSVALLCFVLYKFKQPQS

[13] = biological target: T5, Amine oxidase [flavin-containing] B (Mus musculus, UniProt Q8BW75); assay: Inhibition of mouse MAO-B
T5 sequence (Q8BW75 whole entry): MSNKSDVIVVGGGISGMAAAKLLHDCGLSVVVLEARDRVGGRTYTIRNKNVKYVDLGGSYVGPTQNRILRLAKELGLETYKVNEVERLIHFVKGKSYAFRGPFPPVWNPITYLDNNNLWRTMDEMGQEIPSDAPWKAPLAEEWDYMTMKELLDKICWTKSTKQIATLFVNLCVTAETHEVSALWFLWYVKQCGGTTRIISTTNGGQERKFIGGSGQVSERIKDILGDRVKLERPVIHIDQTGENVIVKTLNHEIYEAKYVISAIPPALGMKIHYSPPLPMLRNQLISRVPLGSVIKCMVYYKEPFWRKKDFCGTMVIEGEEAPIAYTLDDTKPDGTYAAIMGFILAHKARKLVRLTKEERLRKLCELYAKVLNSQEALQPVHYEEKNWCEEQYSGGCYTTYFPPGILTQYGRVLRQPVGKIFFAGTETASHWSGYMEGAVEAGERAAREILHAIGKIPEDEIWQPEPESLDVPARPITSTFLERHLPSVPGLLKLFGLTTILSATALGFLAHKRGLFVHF

| SMILES | IC50 [1] [µM] | inhibition (Rattus norvegicus) [%] | remaining at 10 min [2] [%] | solubility at 20 min, 100 µM [3] [µM] | activity at 10 µM [4] [%] | Papp at 2 h, 25 µM [5] [×10⁻⁶ cm/s] | remaining at 1 h [6] [%] | logD [7] | remaining at 10 min [8] [%] | remaining at 1 h [9] [%] | IC50 [10] [µM] | IC50 [11] [µM] | Activity (SH-SY5Y) [%] | IC50 [12] [µM] | IC50 [13] [mM] |
| --- | --- | --- | --- | --- | --- | --- | --- | --- | --- | --- | --- | --- | --- | --- | --- |
| COc1cc2c(cc1OC)CN(CCCOc1ccc(C(C)=O)c(O)c1)CC2 | 8.1 | – | – | – | – | – | – | – | – | – | – | – | – | – | – |
| COc1cc2c(cc1OC)[C@@H](C)NCC2 | – | 48 | – | – | – | – | – | – | – | – | – | – | – | – | – |
| COC(=O)c1ccccc1N1CCc2cc(OC)c(OC)cc2C1 | – | – | 0.4 | 12.7 (≈ 4.16 µg/mL) | 103 | 2.1 | 0.2 | 4.3 | 7.2 | 0.1 | – | – | – | – | – |
| COc1cc2c(cc1OC)CN(c1ccc(C=O)cc1)CC2 | – | – | 12.6 | 6.6 (≈ 1.96 µg/mL) | 14 | 2.8 | 9.2 | 3.7 | 61 | 0.4 | 1.55 | > 100 | 99 | – | – |
| COc1cc2c(cc1OC)C(C)N(c1ccc(F)cc1)CC2 (centres undefined) | – | – | 1.2 | 7.6 (≈ 2.29 µg/mL) | – | 8.3 | 23.2 | 4.8 | 71.1 | 0.3 | – | – | – | – | – |
| COc1cc2c(cc1OC)CN(c1ccc(C(=O)O)cc1)CC2 | – | – | 91.6 | ≥ 95 | 97 | 81.2 | 88.4 | 2.5 | 91.8 | 91.8 | – | – | – | – | – |
| COc1cc2c(cc1OC)CN(c1cccnc1)CC2 | – | – | 9.5 | 78.9 (≈ 21.3 µg/mL) | 86 | 39.5 | 15.5 | 3.7 | 66.9 | 0.2 | – | – | – | – | – |
| COc1cc2c(cc1OC)CN(c1ccc(F)cc1)CC2 | – | – | 2.5 | 20.3 (≈ 5.83 µg/mL) | 57 | 20.4 | 56.9 | 4.5 | 56.8 | 0.6 | 13.5 | > 100 | 104 | – | – |
| COc1cc2c(cc1OC)C(C)N(c1ccc(C=O)cc1)CC2 (centres undefined) | – | – | 15.5 | 22.2 (≈ 6.91 µg/mL) | – | 7.4 | 18 | 4 | 66.1 | 1 | – | – | – | – | – |
| COc1cc2c(cc1OC)CN(c1ccccn1)CC2 | – | – | 9.9 | 0.8 (≈ 0.216 µg/mL) | 89 | 38.8 | 17.7 | 3.7 | 70.8 | 0.2 | – | – | – | – | – |
| COc1cc2c(cc1OC)CN(c1ccc(CO)cc1)CC2 | – | – | 92.6 | 93.9 (≈ 28.1 µg/mL) | 79 | 26.8 | 79.5 | 3.1 | 97.8 | 64.4 | – | – | – | – | – |
| COc1cc2c(cc1OC)CN(c1cc(C(F)(F)F)cc(C(F)(F)F)c1)CC2 | – | – | 83.1 | < 0.5 | 86 | < 0.1 | 62.2 | 5.7 | 98.7 | 26.9 | – | – | – | – | – |
| COc1ccc(N2CCc3cc(OC)c(OC)cc3C2)cc1 | – | – | 12.1 | 3.7 (≈ 1.11 µg/mL) | 95 | 10.1 | 53.5 | 4.2 | 77.1 | 1.7 | – | – | – | – | – |
| COc1cc2c(cc1OC)CN(c1cccc(O)c1)CC2 | – | – | 22.5 | 89.6 (≈ 25.6 µg/mL) | 107 | 43.7 | 72.1 | 3.2 | 94.7 | 0.5 | – | – | – | – | – |
| COc1cc2c(cc1OC)CN(c1cc(F)cc(F)c1)CC2 | – | – | – | – | 24 | – | – | – | – | – | 5.1 | > 100 | 97.3 | – | – |
| COc1cc2c(cc1OC)CN(c1ccccc1)CC2 | – | – | 3.7 | 19.1 (≈ 5.14 µg/mL) | 81 | 21 | 10.5 | 4.5 | 63.9 | 0.4 | – | – | – | – | – |
| COc1cc2c(cc1OC)CNCC2 | – | – | – | – | 96 | – | – | – | – | – | – | – | – | > 100 | > 1 |
| COc1cc2c(cc1OC)C(C)N(c1ccc(CO)cc1)CC2 (centres undefined) | – | – | 83.4 | 89.8 (≈ 28.1 µg/mL) | – | 34.4 | 78.4 | 3.4 | 91.3 | 33.8 | – | – | – | – | – |
